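48-hour exposure; five concentrations; linearly interpolated endpoints. The concentration for 50% growth inhibition is given as GI50.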 The source made the active and inactive calls. No stated cut-off is given here; in the data, active = GI50 up to about 1.1 µM and inactive = higher.
Assays:
Test in all cases: DTP human tumour cell line panel, 48 h
MDA-N = tested on: MDA-N
M14 = tested on: M14
MDA-MB-231 = tested on: MDA-MB-231
UO-31 = tested on: UO-31
SR = tested on: SR
T47D = tested on: T47D
SF-268 = tested on: SF-268
RXF 393 = tested on: RXF 393
NCI-H522 = tested on: NCI-H522
SNB-75 = tested on: SNB-75
OVCAR-8 = tested on: OVCAR-8
EKVX = tested on: EKVX
HOP-92 = tested on: HOP-92
HL-60 = tested on: HL-60
NCI-H226 = tested on: NCI-H226
MOLT-4 = tested on: MOLT-4
MDA-MB-435 = tested on: MDA-MB-435
HT-29 = tested on: HT-29
UACC-257 = tested on: UACC-257
HCT-15 = tested on: HCT-15
SK-MEL-2 = tested on: SK-MEL-2
UACC-62 = tested on: UACC-62
HCT-116 = tested on: HCT-116
OVCAR-5 = tested on: OVCAR-5
SNB-19 = tested on: SNB-19
SF-539 = tested on: SF-539
NCI-H460 = tested on: NCI-H460
A498 = tested on: A498
LOX IMVI = tested on: LOX IMVI
CAKI-1 = tested on: CAKI-1
SW-620 = tested on: SW-620
SN12C = tested on: SN12C
HCC 2998 = tested on: HCC 2998
DU-145 = tested on: DU-145
PC-3 = tested on: PC-3
ACHN = tested on: ACHN
SF-295 = tested on: SF-295
RPMI-8226 = tested on: RPMI-8226
HOP-62 = tested on: HOP-62
OVCAR-4 = tested on: OVCAR-4
Malme-3M = tested on: Malme-3M
Hs-578T = tested on: Hs-578T
K562 = tested on: K562
U-251 = tested on: U-251
NCI-H23 = tested on: NCI-H23
SK-MEL-5 = tested on: SK-MEL-5
CCRF-CEM = tested on: CCRF-CEM
A549 = tested on: A549
SK-MEL-28 = tested on: SK-MEL-28
COLO 205 = tested on: COLO 205
BT-549 = tested on: BT-549
786-0 = tested on: 786-0
KM12 = tested on: KM12
TK-10 = tested on: TK-10
MCF7 = tested on: MCF7
NCI/ADR-RES = tested on: NCI/ADR-RES
OVCAR-3 = tested on: OVCAR-3
IGROV-1 = tested on: IGROV-1

O=C(N/N=C\c1ccccc1)Nc1cccc2ccccc12
GI50 (MDA-N): 25.1 µM (inactive) | GI50 (M14): 21.8 µM (inactive) | GI50 (MDA-MB-231): 91.4 µM (inactive) | GI50 (UO-31): 40.5 µM (inactive) | GI50 (SR): > 100 µM (inactive) | GI50 (T47D): 2.98 µM (inactive) | GI50 (SF-268): 57 µM (inactive) | GI50 (RXF 393): 28.1 µM (inactive) | GI50 (NCI-H522): 56.6 µM (inactive) | GI50 (SNB-75): 18.7 µM (inactive) | GI50 (OVCAR-8): 27.9 µM (inactive) | GI50 (EKVX): 36.1 µM (inactive) | GI50 (HOP-92): 40.5 µM (inactive) | GI50 (HL-60): > 100 µM (inactive) | GI50 (NCI-H226): 27.1 µM (inactive) | GI50 (MOLT-4): > 100 µM (inactive) | GI50 (MDA-MB-435): 29.9 µM (inactive) | GI50 (HT-29): 24.3 µM (inactive) | GI50 (UACC-257): 78.2 µM (inactive) | GI50 (HCT-15): 74 µM | GI50 (SK-MEL-2): 26.7 µM (inactive) | GI50 (UACC-62): 29.2 µM (inactive) | GI50 (HCT-116): 35.9 µM (inactive) | GI50 (OVCAR-5): 60.4 µM (inactive) | GI50 (SNB-19): 60.7 µM (inactive) | GI50 (SF-539): 50.4 µM (inactive) | GI50 (NCI-H460): 27.7 µM (inactive) | GI50 (A498): 25.4 µM (inactive) | GI50 (LOX IMVI): 44.2 µM (inactive) | GI50 (CAKI-1): 35.7 µM (inactive) | GI50 (SW-620): 33.8 µM (inactive) | GI50 (SN12C): 20.3 µM (inactive) | GI50 (HCC 2998): 80.2 µM (inactive) | GI50 (DU-145): > 100 µM (inactive) | GI50 (PC-3): 24.4 µM (inactive) | GI50 (ACHN): 18.1 µM (inactive) | GI50 (SF-295): 32.1 µM (inactive) | GI50 (RPMI-8226): > 100 µM (inactive) | GI50 (HOP-62): 18.5 µM (inactive) | GI50 (OVCAR-4): 33.5 µM (inactive) | GI50 (Malme-3M): 28.5 µM (inactive) | GI50 (Hs-578T): 22 µM (inactive) | GI50 (K562): > 100 µM (inactive) | GI50 (U-251): 30.3 µM (inactive) | GI50 (NCI-H23): > 100 µM (inactive) | GI50 (SK-MEL-5): 12.1 µM (inactive) | GI50 (CCRF-CEM): > 100 µM (inactive) | GI50 (A549): 26.1 µM (inactive) | GI50 (SK-MEL-28): 21.7 µM (inactive) | GI50 (COLO 205): 48.3 µM (inactive) | GI50 (BT-549): 31 µM (inactive) | GI50 (786-0): 16.4 µM (inactive) | GI50 (KM12): 33.4 µM (inactive) | GI50 (TK-10): 42.9 µM (inactive) | GI50 (MCF7): > 10 µM (inactive) | GI50 (NCI/ADR-RES): 87.7 µM (inactive) | GI50 (OVCAR-3): > 100 µM (inactive) | GI50 (IGROV-1): 24.7 µM (inactive)

Cc1c(O)oc2ccccc2c1=O
GI50 (MDA-N): > 100 µM (inactive) | GI50 (M14): > 100 µM (inactive) | GI50 (MDA-MB-231): > 100 µM (inactive) | GI50 (UO-31): > 100 µM (inactive) | GI50 (SR): > 100 µM (inactive) | GI50 (T47D): > 100 µM (inactive) | GI50 (SF-268): > 100 µM (inactive) | GI50 (RXF 393): > 100 µM (inactive) | GI50 (NCI-H522): > 100 µM (inactive) | GI50 (SNB-75): > 100 µM (inactive) | GI50 (OVCAR-8): > 100 µM (inactive) | GI50 (EKVX): > 100 µM (inactive) | GI50 (HOP-92): > 100 µM (inactive) | GI50 (HL-60): > 100 µM (inactive) | GI50 (NCI-H226): > 100 µM (inactive) | GI50 (MOLT-4): > 100 µM (inactive) | GI50 (MDA-MB-435): > 100 µM (inactive) | GI50 (HT-29): > 100 µM (inactive) | GI50 (UACC-257): > 100 µM (inactive) | GI50 (HCT-15): > 100 µM | GI50 (SK-MEL-2): > 100 µM (inactive) | GI50 (UACC-62): > 100 µM (inactive) | GI50 (HCT-116): > 100 µM (inactive) | GI50 (OVCAR-5): > 100 µM (inactive) | GI50 (SNB-19): > 100 µM (inactive) | GI50 (SF-539): > 100 µM (inactive) | GI50 (NCI-H460): > 100 µM (inactive) | GI50 (A498): > 100 µM (inactive) | GI50 (LOX IMVI): > 100 µM (inactive) | GI50 (CAKI-1): > 100 µM (inactive) | GI50 (SW-620): > 100 µM (inactive) | GI50 (SN12C): > 100 µM (inactive) | GI50 (HCC 2998): > 100 µM (inactive) | GI50 (DU-145): > 100 µM (inactive) | GI50 (PC-3): > 100 µM (inactive) | GI50 (ACHN): > 100 µM (inactive) | GI50 (SF-295): > 100 µM (inactive) | GI50 (RPMI-8226): > 100 µM (inactive) | GI50 (HOP-62): > 100 µM (inactive) | GI50 (OVCAR-4): > 100 µM (inactive) | GI50 (Malme-3M): > 100 µM (inactive) | GI50 (Hs-578T): > 100 µM (inactive) | GI50 (K562): > 100 µM (inactive) | GI50 (U-251): > 100 µM (inactive) | GI50 (NCI-H23): > 100 µM (inactive) | GI50 (SK-MEL-5): > 100 µM (inactive) | GI50 (CCRF-CEM): > 100 µM (inactive) | GI50 (A549): > 100 µM (inactive) | GI50 (SK-MEL-28): > 100 µM (inactive) | GI50 (COLO 205): > 100 µM (inactive) | GI50 (BT-549): > 100 µM (inactive) | GI50 (786-0): > 100 µM (inactive) | GI50 (KM12): > 100 µM (inactive) | GI50 (MCF7): > 100 µM (inactive) | GI50 (NCI/ADR-RES): > 100 µM (inactive) | GI50 (OVCAR-3): > 100 µM (inactive) | GI50 (IGROV-1): > 100 µM (inactive)
